Source: patent US9796733B2, “Imidazo-pyrazine derivatives useful as soluble guanylate cyclase activators” (Merck Sharp & Dohme Corp., priority 2014, dated 2017)

Legend:
[1] = tested on: Spontaneously hypertensive rats (SHR); experiment: Acute efficacy in spontaneously hypertensive rats (SHR): telemetry blood pressure lowering after a single oral dose; type: in vivo, rat
Description: Acute Efficacy in Spontaneously Hypertensive Rats (SHR)
Spontaneously hypertensive rats (SHR, male, Charles River) were implanted with DSI TA11PA-C40 telemetry device (Data Sciences, Inc., St. Paul, Minn.) under isoflurane or ketamine/metomidine anesthesia. The telemetry unit catheter was inserted into the descending aorta via the femoral artery and the telemetry device was implanted subcutaneously in the left flank area. Animals were allowed to recover from surgery for 14 days before the start of any studies. Blood pressure, heart rate, and activity signals from conscious, freely moving rats were recorded continuously for 30 seconds every 10 minutes. On the day prior to administration of compound, a single oral dose of vehicle (10% transcutol/20% Cremophor/70% water) was administered to all animals to establish baseline control data. The blood pressure lowering efficacy of compound (PO) or vehicle was evaluated following a single oral gavage. Data were collected as hourly averages, and changes in blood pressure were calculated by subtracting control baseline data on an hourly basis. Animals were maintained on normal diet with a 12 hour light-dark cycle.
Maximum peak decreases of systolic blood pressure (SBP) in SHR at a particular P.O. dose (mpk milligrams per kilogram) for the following representative compounds are provided. Category A=SBP in SHRs<20 mmHg; Category B=SBP in SHRs 20-40 mmHg; Category C=SBP in SHRs>40 mmHg

[2] = molecular target: T1, sGC α1/β1 heterodimer (Homo sapiens, UniProt Q02108+Q02153); experiment: Cell-based sGC functional assay (CASA assay): cGMP generation in CHO-K1/sGC cells, HTRF detection; settings: for Emax: CHO-K1, percent activation relative to standard Compound A in CHO-K1/sGC cells, read-out: % Act.; for EC50: inflection point (IP) of cGMP generation in CHO-K1/sGC cells, 4P fit, activity expressed as percentage of Compound A
T1 construct: expressed in transfected cells; host or cells: CHO-K1 (clone #7, CHO-K1/sGC)
T1 sequence (Q02108 1-690): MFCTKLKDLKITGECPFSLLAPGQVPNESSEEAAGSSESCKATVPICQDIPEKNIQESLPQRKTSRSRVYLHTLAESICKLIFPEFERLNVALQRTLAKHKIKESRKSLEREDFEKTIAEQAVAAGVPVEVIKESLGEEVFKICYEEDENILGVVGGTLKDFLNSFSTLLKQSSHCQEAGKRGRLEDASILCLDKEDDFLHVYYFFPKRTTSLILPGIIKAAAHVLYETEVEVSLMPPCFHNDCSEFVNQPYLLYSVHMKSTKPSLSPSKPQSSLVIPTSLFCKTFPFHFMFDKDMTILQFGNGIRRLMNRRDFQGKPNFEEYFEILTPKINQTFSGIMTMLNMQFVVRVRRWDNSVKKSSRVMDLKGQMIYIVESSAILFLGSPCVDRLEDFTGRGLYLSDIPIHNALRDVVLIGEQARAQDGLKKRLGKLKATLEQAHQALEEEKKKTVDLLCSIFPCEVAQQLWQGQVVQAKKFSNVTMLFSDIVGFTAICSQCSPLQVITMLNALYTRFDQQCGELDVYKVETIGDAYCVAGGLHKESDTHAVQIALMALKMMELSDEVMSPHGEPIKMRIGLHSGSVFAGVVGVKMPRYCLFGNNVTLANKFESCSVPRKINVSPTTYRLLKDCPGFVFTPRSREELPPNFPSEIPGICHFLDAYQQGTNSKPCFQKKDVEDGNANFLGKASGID
T1 sequence (Q02153 1-619): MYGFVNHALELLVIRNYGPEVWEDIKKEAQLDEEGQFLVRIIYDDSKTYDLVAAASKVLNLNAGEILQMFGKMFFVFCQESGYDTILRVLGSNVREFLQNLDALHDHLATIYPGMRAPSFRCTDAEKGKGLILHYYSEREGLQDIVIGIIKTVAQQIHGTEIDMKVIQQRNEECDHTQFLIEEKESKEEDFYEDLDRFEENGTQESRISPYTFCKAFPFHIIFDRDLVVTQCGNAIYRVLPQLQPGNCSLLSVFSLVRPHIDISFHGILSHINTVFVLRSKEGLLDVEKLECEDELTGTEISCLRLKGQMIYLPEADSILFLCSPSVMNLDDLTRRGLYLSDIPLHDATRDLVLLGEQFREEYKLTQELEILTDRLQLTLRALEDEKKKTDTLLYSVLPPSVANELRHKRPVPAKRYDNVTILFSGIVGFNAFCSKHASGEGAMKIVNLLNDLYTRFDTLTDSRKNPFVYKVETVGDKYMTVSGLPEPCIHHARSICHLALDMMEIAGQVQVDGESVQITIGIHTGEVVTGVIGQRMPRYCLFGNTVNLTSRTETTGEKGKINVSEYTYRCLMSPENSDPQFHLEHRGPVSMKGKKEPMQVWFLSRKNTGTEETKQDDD
Procedure, shortened: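 cGMP was quantified by HTRF after 1 hr, 37° C exposure of thawed CHO-K1 cells expressing sGC α1/β1 to compound, with or without 1 μM DETA-NO. IBMX (0.5 mM) blocked cGMP breakdown, and DMSO was 2.5% final. Percent of standard Compound A's maximal cGMP was fitted (4P) for inflection point.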

Compound	Emax [2] [%]	EC50 [2] [nM]	Maximum peak decrease of systolic blood pressure (SBP) in SHR, Cat. ([1]; P.O. 3.0 mpk)	Maximum peak decrease of systolic blood pressure (SBP) in SHR, Cat. ([1]; P.O. 1.0 mpk)	Maximum peak decrease of systolic blood pressure (SBP) in SHR, Cat. ([1]; P.O. 0.3 mpk)
Cc1nnc(C2(C3CC3)C(=O)Nc3nc(-c4cn5ccnc5c(CCC(F)(F)C(F)(F)F)n4)nc(N)c32)s1 (stereo not drawn) [Example 53A, 4-amino-5-cyclopropyl-5-(5-methyl-1,3,4-thiadiazol-2-yl)-2-(8-(3,3,4,4,4-pentafluorobutyl)imidazo[1,2-a]pyrazin-6-yl)-5H-pyrrolo[2,3-d]pyrimidin-6(7H)-one]	104	132	C (Category C=SBP in SHRs>40 mmHg)		
CC1(c2nnc(C3CC3)s2)C(=O)Nc2nc(-c3cn4ccnc4c(CCC(F)(F)C(F)(F)F)n3)nc(N)c21 (stereo not drawn) [Example 59A, 4-amino-5-(5-cyclopropyl-1,3,4-thiadiazol-2-yl)-5-methyl-2-(8-(3,3,4,4,4-pentafluorobutyl)imidazo[1,2-a]pyrazin-6-yl)-5H-pyrrolo[2,3-d]pyrimidin-6(7H)-one]	97	67		A (Category A=SBP in SHRs<20 mmHg)	
CC1(C)C(=O)Nc2nc(-c3cn4ccnc4c(Cc4ccccc4F)n3)nc(N)c21 [Example 70, 4-amino-2-(8-(2-fluorobenzyl)imidazo[1,2-a]pyrazin-6-yl)-5,5-dimethyl-5H-pyrrolo[2,3-d]pyrimidin-6(7H)-one]	109	21			B (Category B=SBP in SHRs 20-40 mmHg)
CC1(C)C(=O)Nc2nc(-c3cn4ccnc4c(Cc4ccccc4)n3)nc(N)c21 [Example 76, 4-amino-2-(8-benzylimidazo[1,2-a]pyrazin-6-yl)-5,5-dimethyl-5H-pyrrolo[2,3-d]pyrimidin-6(7H)-one]	119	91		B (Category B=SBP in SHRs 20-40 mmHg)	
CC1(c2ccccc2)C(=O)Nc2nc(-c3cn4ccnc4c(Cc4c(F)ccc(F)c4F)n3)nc(N)c21 (stereo not drawn) [Example 100B, 4-amino-5-methyl-5-phenyl-2-(8-(2,3,6-trifluorobenzyl)imidazo[1,2-a]pyrazin-6-yl)-5H-pyrrolo[2,3-d]pyrimidin-6(7H)-one]	96	13			A (Category A=SBP in SHRs<20 mmHg)
CC1(c2ccc(F)cc2)C(=O)Nc2nc(-c3cn4ccnc4c(-c4ccccc4)n3)nc(N)c21 (stereo not drawn) [Example 112A, 4-amino-5-(4-fluorophenyl)-5-methyl-2-(8-phenylimidazo[1,2-a]pyrazin-6-yl)-5H-pyrrolo[2,3-d]pyrimidin-6(7H)-one]	89	289	B (Category B=SBP in SHRs 20-40 mmHg)		
CC1(c2ccc(F)cn2)C(=O)Nc2nc(-c3cn4ccnc4c(CC4CCC4)n3)nc(N)c21 (stereo not drawn) [Example 115B, 4-amino-2-(8-(cyclobutylmethyl)imidazo [1,2-a]pyrazin-6-yl)-5-(5-fluoropyridin-2-yl)-5-methyl-5H-pyrrolo[2,3-d]pyrimidin-6(7H)-one]	111	14			C (Category C=SBP in SHRs>40 mmHg)
CC1(c2ccc(Cl)cc2)C(=O)Nc2nc(-c3cn4ccnc4c(CC4CCC4)n3)nc(N)c21 (stereo not drawn) [Example 118A, 4-amino-5-(4-chlorophenyl)-2-(8-(cyclobutylmethyl)imidazo [1,2-a]pyrazin-6-yl)-5-methyl-5H-pyrrolo[2,3-d]pyrimidin-6(7H)-one]	76	33			C (Category C=SBP in SHRs>40 mmHg)
CCCc1nc(-c2nc(N)c3c(n2)NC(=O)C3(C)c2ccc(Cl)c(F)c2)cn2ccnc12 (stereo not drawn) [Example 124B, 4-amino-5-(4-chloro-3-fluorophenyl)-5-methyl-2-(8-propylimidazo[1,2-a]pyrazin-6-yl)-5H-pyrrolo[2,3-d]pyrimidin-6(7H)-one]	103	34			B (Category B=SBP in SHRs 20-40 mmHg)
CCCc1nc(-c2nc(N)c3c(n2)NC(=O)C3(C)c2ccc(Cl)cn2)cn2ccnc12 (stereo not drawn) [Example 129A, 4-amino-5-(5-chloropyridin-2-yl)-5-methyl-2-(8-propylimidazo[1,2-a]pyrazin-6-yl)-5H-pyrrolo[2,3-d]pyrimidin-6(7H)-one]	94	107		B (Category B=SBP in SHRs 20-40 mmHg)	

Second part, led by results:

Emax [2] [%]	EC50 [2] [nM]	Compound	Maximum peak decrease of systolic blood pressure (SBP) in SHR, Cat. ([1]; P.O. 3.0 mpk)	Maximum peak decrease of systolic blood pressure (SBP) in SHR, Cat. ([1]; P.O. 1.0 mpk)	Maximum peak decrease of systolic blood pressure (SBP) in SHR, Cat. ([1]; P.O. 0.3 mpk)
41	88	CC1(C(=O)NC2CC2)C(=O)Nc2nc(-c3cn4ccnc4c(CCC(F)(F)C(F)(F)F)n3)nc(N)c21 (stereo not drawn) [Example 60A, 4-amino-N-cyclopropyl-5-methyl-6-oxo-2-(8-(3,3,4,4,4-pentafluorobutyl)imidazo[1,2-a]pyrazin-6-yl)-6,7-dihydro-5H-pyrrolo[2,3-d]pyrimidine-5-carboxamide]		A (Category A=SBP in SHRs<20 mmHg)	
116	9	CC1(c2ccc(F)cn2)C(=O)Nc2nc(-c3cn4ccnc4c(Cc4ccc(F)cc4)n3)nc(N)c21 (stereo not drawn) [Example 69B, 4-Amino-2-(8-(4-fluorobenzyl)imidazo[1,2-a]pyrazin-6-yl)-5-(5-fluoropyridin-2-yl)-5-methyl-5H-pyrrolo[2,3-d]pyrimidin-6(7H)-one]			C (Category C=SBP in SHRs>40 mmHg)
109	44	CC1(C)C(=O)Nc2nc(-c3cn4ccnc4c(Cc4cccc(F)c4)n3)nc(N)c21 [Example 71, 4-amino-2-(8-(3-fluorobenzyl)imidazo[1,2-a]pyrazin-6-yl)-5,5-dimethyl-5H-pyrrolo[2,3-d]pyrimidin-6(7H)-one]		C (Category C=SBP in SHRs>40 mmHg)	
102	201	CCC1(C2CC2)C(=O)Nc2nc(-c3cn4ccnc4c(CCC(F)(F)C(F)(F)F)n3)nc(N)c21 (stereo not drawn) [Example 86B, 4-amino-5-cyclopropyl-5-ethyl-2-(8-(3,3,4,4,4-pentafluorobutyl)imidazo [1,2-a]pyrazin-6-yl)-5H-pyrrolo[2,3-d]pyrimidin-6(7H)-one]	A (Category A=SBP in SHRs<20 mmHg)		
94	57	CC1(c2ccc(F)cc2)C(=O)Nc2nc(-c3cn4ccnc4c(CC4CCC4)n3)nc(N)c21 (stereo not drawn) [Example 114A, 4-amino-2-(8-(cyclobutylmethyl)imidazo [1,2-a]pyrazin-6-yl)-5-(4-fluorophenyl)-5-methyl-5H-pyrrolo[2,3-d]pyrimidin-6(7H)-one]			C (Category C=SBP in SHRs>40 mmHg)
